The values below come from US20240374616A1, “USE OF TERPENOIDS IN THE TREATMENT OF MASTOCYTOMA” (ARJIL BIOTECH HOLDING COMPANY LIMITED, priority 2021, published 2024).

One data set deals with RBL-2H3 cells. Put plainly: β-hexosaminidase release assay in RBL-2H3 cells. The class given is cell-based. The settings on record: under the safety dose, compared with DMSO, FIG. 1. As for the experimental part: β-hexosaminidase Release Assay
RBL-2H3 cells were seeded into 24 well plate (0.5×10^5 cells/0.5 mL/well), and drug treatment was added every other day for 24 hours. On the third day, 500 μL of Anti-DNP-IgE (0.1 μg/mL) was added overnight. On the fourth day, add 160 μL DNP-BSA (0.1 μg/mL in Tyrode's buffer) to each well and react at 37° C. for 1 hour. For each well in 24 wells, 50 μL of cell supernatant was mixed with 50 μL of P-NAG (triplicates), and 96 well plates were reacted at 37° C. for 1 hour. Add 100 μL of stop buffer and measure the absorbance at 405 nm, which is the β-hexosaminidase data. For 24 well plates, add 300 μL of MTT reagent (0.5 mg/mL) to each well, react at 37° C. for 2 hours, remove the supernatant, add 300 μL of DMSO to each well, and measure the absorbance at 570 nm. The data were calculated by one-way ANOVA with Dunnett's test (* […], ** p<0.01, *** p<0.001, **** p<0.0001), and plotted with Graph pad.
The results from triplicate determinations are presented as the percentage of viable cells. Statistical analysis was performed using one-way ANOVA (Dunnett's multiple comparisons test). Results are presented as the mean ±SD from at least three independent experiments. Statistical significance is indicated (ns: no significance, ** p<0.01, *** p<0.001, **** p<0.0001, compared with DMSO).

Data set [1] in a line: Cell Counting Kit-8 assay of cell viability on P815 cells. The class given is cell-based. As to conditions: mouse, P815 mastocytoma cells, read-out: Cell viability (%) Mean ± SD. As for the experimental part: Mouse mastocytoma cells purchased from the Bioresource Collection and Research Center (Hsinchu City, Taiwan) and were cultured with Dulbecco's modified Eagle's (DMEM) medium (Gibco, Carlsbad, California, USA) that was supplemented with 10% fetal bovine serum (Gibco, Carlsbad, California, USA), 100 U/ml penicillin, and 100 μg/ml streptomycin.
(§1) 1×10^5 cells per well of P815 cells were pretreated with terpenoids for 18 h. 5 μL Cell Counting Kit-8 reagent was added to each well, incubating for 4 h followed by optical density determination at 450 nm by a microplate reader (Tecan Sunrise). The mean optical density (OD, absorbance) from four wells of the indicated group was used to calculate the percentage of cell viability as the formula as follows: [(ODexperiment-ODblank)/(ODcontrol-ODblank)]×100%, where ODexperiment is the absorbance of cells treated with […] terpenoid-treated cells, and ODblank is the absorbance of a well with medium only. ODcontrol is the absorbance of cells treated with 0.1% DMSO only.
as §1, with “Mouse mastocytoma cells purchased from the Bioresource Collection and Research Center (Hsinchu City, Taiwan) and were cultured with Dulbecco's modified Eagle's (DMEM) medium (Gibco, Carlsbad, California, USA) that was supplemented with 10% fetal bovine serum (Gibco, Carlsbad, California, USA), 100 U/ml penicillin, and 100 μg/ml streptomycin. 1×10^5” for “1×10^5”, “terpenoids-treated” for “terpenoid-treated”
Background: Formazan colour is commonly taken as a measure of viable cells.

Another data set relates to P815 mast cell tumor. Put plainly: H&E histopathological analysis of P815 tumor tissues. The class given is in vivo, mice. As to conditions: FIG. 11; 0.06 mg. As for the experimental part: Mice were sacrificed on day 30, and tumors were removed, fixed with 10% formalin, 5% formic acid, and embedded in paraffin. Briefly, tumor sections were stained with hematoxylin and eosin (H&E) and analyzed by microscopy. Tissue sections were dewaxed with Xylene, and then treated with ethanol (100%, 95%, 75%, 50%). Tissues were stained with Hematoxylin for 1 minute and Eosin for 5 minutes.
The mice were administrated 100 μL samples intravenously every 2 days and sacrificed on the 30th day for histopathological examinations.

`C=C1C(=O)O[C@H]2/C=C(\C)CC3C=C(CC/C=C(\C)CC[C@H]12)C(=O)O3` (stereo partly drawn) [AR100-DS1, Ovatodiolide]: the β-hexosaminidase release result with RBL-2H3 cells is “significantly lower”. In addition, the viability at 18 h, 1 mg/mL in data set [1] (1 mg/mL) turned out to be 42.4 ± 1.84%. For the same compound, in data set [1] (2 mg/mL), the viability at 18 h, 2 mg/mL was determined as 39.5 ± 3.09%. For the same compound, the viability at 18 h, 3 mg/mL in data set [1] (3 mg/mL) was 40.8 ± 1.25%. Further, the viability at 18 h, 4 mg/mL in data set [1] (4 mg/mL) came out at 43.3 ± 0.65%. Also, in data set [1] (5 mg/mL), the viability at 18 h, 5 mg/mL was 41.4 ± 1.81%.
With `C=C(CC[C@@H](C(=O)O)[C@H]1CC[C@@]2(C)C3=CC[C@H]4C(C)(C)[C@@H](O)CC[C@]4(C)C3=CC[C@]12C)C(C)C` [AR101-DS4, Dehydroeburicoic Acid], in the data set with P815 mast cell tumor, the “H&E histological stain of tumor tissues” value is “arrest the tumor cell proliferation and cause the tumor cell nucleus aggregation”. In addition, the viability at 18 h, 0.02 mg/mL in data set [1] (0.02 mg/mL) stood at 181 ± 30.4%. Besides, the viability at 18 h, 0.04 mg/mL in data set [1] (0.04 mg/mL) turned out to be 69.3 ± 4.58%. Also, in data set [1] (0.06 mg/mL), the viability at 18 h, 0.06 mg/mL amounted to 49.7 ± 2.62%. For the same compound, the viability at 18 h, 0.08 mg/mL in data set [1] (0.08 mg/mL) is 54.3 ± 1.85%. Besides, the viability at 18 h, 0.1 mg/mL in data set [1] (0.1 mg/mL) was 49.1 ± 2.52%.

As a reminder, the viability is a read-out of living cells in per cent, often relative to untreated cells.
